Assay results reported in patent publication US20250171437A1 (Agios Pharmaceuticals,Inc., priority 2022, published 2025).

Target: T1, human PAH with the R408W mutation (A375 R408W cells) (Homo sapiens, UniProt P00439, R408W)
T1 construct: expressed in transfected cells
T1 sequence (P00439 1-452 R408W): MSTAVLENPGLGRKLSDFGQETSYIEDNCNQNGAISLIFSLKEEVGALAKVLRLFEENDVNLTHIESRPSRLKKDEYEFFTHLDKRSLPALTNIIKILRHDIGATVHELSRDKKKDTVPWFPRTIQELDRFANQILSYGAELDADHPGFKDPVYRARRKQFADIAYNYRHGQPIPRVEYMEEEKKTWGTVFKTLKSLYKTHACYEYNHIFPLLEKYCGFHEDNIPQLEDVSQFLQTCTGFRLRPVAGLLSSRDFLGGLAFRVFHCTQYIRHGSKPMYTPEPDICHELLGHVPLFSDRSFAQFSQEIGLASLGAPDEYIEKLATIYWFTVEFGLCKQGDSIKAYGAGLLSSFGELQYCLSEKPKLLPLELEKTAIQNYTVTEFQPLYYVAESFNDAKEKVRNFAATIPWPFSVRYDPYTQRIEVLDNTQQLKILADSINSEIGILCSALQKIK
Test: Cell Based Phenylalanine Flux Assay
Conditions: A375 R408W cells; 24 hrs with compound, then 20 μM sepiapterin and 800 μM 13C9,15N-Phenylalanine for 4 hours; 13C-Tyrosine by LC-MS; average where tested multiple times
Outline: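 A375 cells stably expressing human PAH R408W treated 24 h at 37° C with a 10-point 2-fold dose curve in duplicate, 0.5% DMSO. Then 20 μM sepiapterin and 800 μM 13C9,15N-Phe added for 4 h; 13C-Tyr in media measured by LC-MS to give AC50.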

AC50 [µM] | SMILES
≥ 5 | CN(C)CCc1ccc2c(C(=O)N3CCc4[nH]cnc4[C@@H]3c3nc4cc(F)ccc4o3)cnn2c1 [Example 48, (R)-(6-(2-(dimethylamino)ethyl)pyrazolo[1,5-a]pyridin-3-yl)(4-(5-fluorobenzo[d]oxazol-2-yl)-6,7-dihydro-1H-imidazo[4,5-c]pyridin-5(4H)-yl)methanone]
≤ 0.5 | O=C(c1oc(-c2ccccn2)nc1C(F)(F)F)N1CCc2[nH]cnc2[C@H]1c1nc2cc(F)ccc2o1 [Example 49, (S)-(4-(5-fluorobenzo[d]oxazol-2-yl)-6,7-dihydro-1H-imidazo[4,5-c]pyridin-5(4H)-yl)(2-(pyridin-2-yl)-4-(trifluoromethyl)oxazol-5-yl)methanone]
≤ 0.5 | O=C(c1oc(-c2ccccn2)nc1C(F)(F)F)N1CCc2[nH]cnc2[C@@H]1c1nc2cc(F)ccc2o1 [Example 50, (R)-(4-(5-fluorobenzo[d]oxazol-2-yl)-6,7-dihydro-1H-imidazo[4,5-c]pyridin-5(4H)-yl)(2-(pyridin-2-yl)-4-(trifluoromethyl)oxazol-5-yl)methanone]
≤ 0.5 | O=C(c1ocnc1C(F)F)N1CCc2[nH]cnc2[C@H]1c1nc2cc(F)ccc2o1 [Example 51, (S)-(4-(difluoromethyl)oxazol-5-yl)(4-(5-fluorobenzo[d]oxazol-2-yl)-6,7-dihydro-1H-imidazo[4,5-c]pyridin-5(4H)-yl)methanone]
0.5 to 1 | O=C(c1ocnc1C(F)F)N1CCc2[nH]cnc2[C@@H]1c1nc2cc(F)ccc2o1 [Example 52, (R)-(4-(difluoromethyl)oxazol-5-yl)(4-(5-fluorobenzo[d]oxazol-2-yl)-6,7-dihydro-1H-imidazo[4,5-c]pyridin-5(4H)-yl)methanone]
≤ 0.5 | O=C(c1oc(C2CC2)nc1C(F)F)N1CCc2[nH]cnc2[C@H]1c1nc2cc(F)ccc2o1 [Example 53, (S)-(2-cyclopropyl-4-(difluoromethyl)oxazol-5-yl)(4-(5-fluorobenzo[d]oxazol-2-yl)-6,7-dihydro-1H-imidazo[4,5-c]pyridin-5(4H)-yl)methanone]
0.5 to 1 | O=C(c1oc(C2CC2)nc1C(F)F)N1CCc2[nH]cnc2[C@@H]1c1nc2cc(F)ccc2o1 [Example 54, (R)-(2-cyclopropyl-4-(difluoromethyl)oxazol-5-yl)(4-(5-fluorobenzo[d]oxazol-2-yl)-6,7-dihydro-1H-imidazo[4,5-c]pyridin-5(4H)-yl)methanone]
0.5 to 1 | O=C(CC1(O)CCC1)N1CCc2[nH]cnc2[C@H]1c1nc2cc(F)ccc2o1 [Example 55, (S)-1-(4-(5-fluorobenzo[d]oxazol-2-yl)-6,7-dihydro-1H-imidazo[4,5-c]pyridin-5(4H)-yl)-2-(1-hydroxycyclobutyl)ethanone]
1 to 5 | O=C(CC1(O)CCC1)N1CCc2[nH]cnc2[C@@H]1c1nc2cc(F)ccc2o1 [Example 56, (R)-1-(4-(5-fluorobenzo[d]oxazol-2-yl)-6,7-dihydro-1H-imidazo[4,5-c]pyridin-5(4H)-yl)-2-(1-hydroxycyclobutyl)ethanone]
≤ 0.5 | Cc1ccc2nc([C@@H]3c4nc[nH]c4CCN3C(=O)c3ocnc3C(F)(F)F)oc2c1 [Example 57, (S)-(4-(6-methylbenzo[d]oxazol-2-yl)-6,7-dihydro-1H-imidazo[4,5-c]pyridin-5(4H)-yl)(4-(trifluoromethyl)oxazol-5-yl)methanone]
≤ 0.5 | Cc1ccc2nc([C@H]3c4nc[nH]c4CCN3C(=O)c3ocnc3C(F)(F)F)oc2c1 [Example 58, (R)-(4-(6-methylbenzo[d]oxazol-2-yl)-6,7-dihydro-1H-imidazo[4,5-c]pyridin-5(4H)-yl)(4-(trifluoromethyl)oxazol-5-yl)methanone]
0.5 to 1 | O=C(CC1CC(F)C1)N1CCc2[nH]cnc2[C@H]1c1nc2cc(F)ccc2o1 (stereo partly drawn) [Example 59, (S)-1-(4-(5-fluorobenzo[d]oxazol-2-yl)-6,7-dihydro-1H-imidazo[4,5-c]pyridin-5(4H)-yl)-2-(3-fluorocyclobutyl)ethanone]
1 to 5 | O=C(CC1CC(F)C1)N1CCc2[nH]cnc2[C@@H]1c1nc2cc(F)ccc2o1 (stereo partly drawn) [Example 60, (R)-1-(4-(5-fluorobenzo[d]oxazol-2-yl)-6,7-dihydro-1H-imidazo[4,5-c]pyridin-5(4H)-yl)-2-(3-fluorocyclobutyl)ethanone]
0.5 to 1 | O=C([C@@H]1CC1(F)F)N1CCc2[nH]cnc2[C@H]1c1nc2cc(F)ccc2o1 [Example 61, ((S)-2,2-difluorocyclopropyl)((S)-4-(5-fluorobenzo[d]oxazol-2-yl)-6,7-dihydro-1H-imidazo[4,5-c]pyridin-5(4H)-yl)methanone]
1 to 5 | O=C([C@@H]1CC1(F)F)N1CCc2[nH]cnc2[C@@H]1c1nc2cc(F)ccc2o1 [Example 62, ((S)-2,2-difluorocyclopropyl)((R)-4-(5-fluorobenzo[d]oxazol-2-yl)-6,7-dihydro-1H-imidazo[4,5-c]pyridin-5(4H)-yl)methanone]
≤ 0.5 | Cc1ccc2oc([C@@H]3c4nc[nH]c4CCN3C(=O)c3ocnc3C(F)(F)F)nc2c1 [Example 63, (S)-(4-(5-methylbenzo[d]oxazol-2-yl)-6,7-dihydro-1H-imidazo[4,5-c]pyridin-5(4H)-yl)(4-(trifluoromethyl)oxazol-5-yl)methanone]
≤ 0.5 | Cc1ccc2oc([C@H]3c4nc[nH]c4CCN3C(=O)c3ocnc3C(F)(F)F)nc2c1 [Example 64, (R)-(4-(5-methylbenzo[d]oxazol-2-yl)-6,7-dihydro-1H-imidazo[4,5-c]pyridin-5(4H)-yl)(4-(trifluoromethyl)oxazol-5-yl)methanone]
1 to 5 | CN1CCN(c2ccc3c(C(=O)N4CCc5[nH]cnc5[C@H]4c4nc5cc(F)ccc5o4)cnn3c2)CC1 [Example 65, (S)-(4-(5-fluorobenzo[d]oxazol-2-yl)-6,7-dihydro-1H-imidazo[4,5-c]pyridin-5(4H)-yl)(6-(4-methylpiperazin-1-yl)pyrazolo[1,5-a]pyridin-3-yl)methanone]
≥ 5 | CN1CCN(c2ccc3c(C(=O)N4CCc5[nH]cnc5[C@@H]4c4nc5cc(F)ccc5o4)cnn3c2)CC1 [Example 66, (R)-(4-(5-fluorobenzo[d]oxazol-2-yl)-6,7-dihydro-1H-imidazo[4,5-c]pyridin-5(4H)-yl)(6-(4-methylpiperazin-1-yl)pyrazolo[1,5-a]pyridin-3-yl)methanone]
1 to 5 | Cn1cc(-c2nnc(C(=O)N3CCc4[nH]cnc4[C@H]3c3nc4cc(F)ccc4o3)o2)cn1 [Example 67, (S)-(4-(5-fluorobenzo[d]oxazol-2-yl)-6,7-dihydro-1H-imidazo[4,5-c]pyridin-5(4H)-yl)(5-(1-methyl-1H-pyrazol-4-yl)-1,3,4-oxadiazol-2-yl)methanone]
1 to 5 | Cn1cc(-c2nnc(C(=O)N3CCc4[nH]cnc4[C@@H]3c3nc4cc(F)ccc4o3)o2)cn1 [Example 68, (R)-(4-(5-fluorobenzo[d]oxazol-2-yl)-6,7-dihydro-1H-imidazo[4,5-c]pyridin-5(4H)-yl)(5-(1-methyl-1H-pyrazol-4-yl)-1,3,4-oxadiazol-2-yl)methanone]
0.5 to 1 | O=C(c1cnn2cc(Br)ccc12)N1CCc2[nH]cnc2[C@H]1c1nc2cc(F)ccc2o1 [Example 69, (S)-(6-bromopyrazolo[1,5-a]pyridin-3-yl)(4-(5-fluorobenzo[d]oxazol-2-yl)-6,7-dihydro-1H-imidazo[4,5-c]pyridin-5(4H)-yl)methanone]
1 to 5 | O=C(c1cnn2cc(Br)ccc12)N1CCc2[nH]cnc2[C@@H]1c1nc2cc(F)ccc2o1 [Example 70, (R)-(6-bromopyrazolo[1,5-a]pyridin-3-yl)(4-(5-fluorobenzo[d]oxazol-2-yl)-6,7-dihydro-1H-imidazo[4,5-c]pyridin-5(4H)-yl)methanone]
0.5 to 1 | Cn1cc(-c2ccc3c(C(=O)N4CCc5[nH]cnc5[C@H]4c4nc5cc(F)ccc5o4)cnn3c2)cn1 [Example 71, (S)-(4-(5-fluorobenzo[d]oxazol-2-yl)-6,7-dihydro-1H-imidazo[4,5-c]pyridin-5(4H)-yl)(6-(1-methyl-1H-pyrazol-4-yl)pyrazolo[1,5-a]pyridin-3-yl)methanone]
≥ 5 | Cn1cc(-c2ccc3c(C(=O)N4CCc5[nH]cnc5[C@@H]4c4nc5cc(F)ccc5o4)cnn3c2)cn1 [Example 72, (R)-(4-(5-fluorobenzo[d]oxazol-2-yl)-6,7-dihydro-1H-imidazo[4,5-c]pyridin-5(4H)-yl)(6-(1-methyl-1H-pyrazol-4-yl)pyrazolo[1,5-a]pyridin-3-yl)methanone]
0.5 to 1 | COc1ccc2c(C(=O)N3CCc4[nH]cnc4[C@H]3c3nc4cc(F)ccc4o3)cnn2c1 [Example 73, (S)-(4-(5-fluorobenzo[d]oxazol-2-yl)-6,7-dihydro-1H-imidazo[4,5-c]pyridin-5(4H)-yl)(6-methoxypyrazolo[1,5-a]pyridin-3-yl)methanone]
≥ 5 | COc1ccc2c(C(=O)N3CCc4[nH]cnc4[C@@H]3c3nc4cc(F)ccc4o3)cnn2c1 [Example 74, (R)-(4-(5-fluorobenzo[d]oxazol-2-yl)-6,7-dihydro-1H-imidazo[4,5-c]pyridin-5(4H)-yl)(6-methoxypyrazolo[1,5-a]pyridin-3-yl)methanone]
